Experimental findings from US9695152B2, “3,4-dihydro-2H-isoquinoline-1-one and 2,3-dihydro-isoindol-1-one compounds” (Hoffmann-La Roche Inc., priority 2013, dated 2017) are described below.

Molecules are shown by their SMILES. pEC50: −log10 of the molar value.

One assay addresses CYP11B2 (Homo sapiens (Human), UniProt P19099). In words: G-402 cellular enzyme assay, human CYP11B2 (aldosterone release, HTRF). The assay is classed as cell-based. The note with it: G-402 cells expressing human CYP11B2, 1 μM Deoxycorticosterone. The source says: (§1) Herein we identified the use of the G-402 cell line as a host cell to ectopically express (transiently or stably) enzymes of the CYP11 family. Specifically we developed stable G-402 cells expressing ectopically human CYP11B1, human CYP11B2, human CYP11A1, cynmolgus CYP11B1 or cynomolgus CYP11B2 enzyme activity. Importantly the identified cell line G-402 expresses co-factors (adrenodoxin and adrenodoxin reductase) important for the activity of the CYP11 family and no relevant enzyme activity of the CYP11 family (in comparison to H295R cells) was detected in these cells. Therefore the G-402 cell line is uniquely suited as a host cell for the ectopic expression of enzymes from the CYP11 family.
(§2) G-402 cells can be obtained from ATCC (CRL-1440) and were originally derived from a renal leiomyoblastoma.
(§3) The expression plasmids contains the ORF for either human/cyno CYP11B1 or CYP11B2 under the control of a suitable promoter (CMV-promoter) and a suitable resistance marker (neomycin). Using standard techniques the expression plasmid is transfected into G-402 cells and these cells are then selected for expressing the given resistance markers. Individual cell-clones are then selected and assessed for displaying the desired enzymatic activity using 11-Deoxycorticosterone (Cyp11B2) or 11-Deoxycortisol (Cyp11B1) as a substrate.
(§4) G-402 cells expressing CYP11 constructs were established as described above and maintained in McCoy's 5a Medium Modified, ATCC Catalog No. 30-2007 containing 10% FCS and 400 μg/ml G418 (Geneticin) at 37° C. under an atmosphere of 5% CO2/95% air. Cellular enzyme assays were performed in DMEM/F12 medium containing 2.5% charcoal treated FCS and appropriate concentration of substrate (0.3-10 uM 11-Deoxycorticosterone, 11-Deoxycortisol or Corticosterone). For assaying enzymatic activity, cells were plated onto 96 well plates and incubated for 16 h. An aliquot of the supernatant is then transferred and analyzed for the concentration of the expected product (Aldosterone for CYP11B2; Cortisol for CYP11B1). The concentrations of these steroids can be determined using HTRF assays from CisBio analyzing either Aldosterone or Cortisol.
(§5) Inhibition of the release of produced steroids can be used as a measure of the respective enzyme inhibition by test compounds added during the cellular enzyme assay. The dose dependent inhibition of enzymatic activity by a compound is calculated by means of plotting added inhibitor concentrations (x-axes) vs. measured steroid/product level (y-axes). The inhibition is then calculated by fitting the following 4-parameter sigmoidal function (Morgan-Mercer-Flodin (MMF) model) to the raw data points using the least squares method:
(§6) [formula] wherein, A is the maximum y value, B is the EC50 factor determined using XLFit, C is the minimum y value and D is the slope value.
(§7) EC50 values for compounds claimed herein were tested with the G402-based assay system described. Cyp11B2 enzyme activity was tested in presence of 1 μM Deoxycorticosterone and variable amounts of inhibitors; Cyp11B1 enzyme activity was tested in presence of 1 μM Deoxycortisol and variable amounts of inhibitors.

The target in another assay is human CYP11B1 (Homo sapiens (Human), UniProt P15538). Nature of the assay: G-402 cellular enzyme assay, human CYP11B1 (cortisol release, HTRF). The assay is classed as cell-based. The note with it: G-402 cells expressing human CYP11B1, 1 μM Deoxycortisol.
Chain of human CYP11B1 (P15538 25-503): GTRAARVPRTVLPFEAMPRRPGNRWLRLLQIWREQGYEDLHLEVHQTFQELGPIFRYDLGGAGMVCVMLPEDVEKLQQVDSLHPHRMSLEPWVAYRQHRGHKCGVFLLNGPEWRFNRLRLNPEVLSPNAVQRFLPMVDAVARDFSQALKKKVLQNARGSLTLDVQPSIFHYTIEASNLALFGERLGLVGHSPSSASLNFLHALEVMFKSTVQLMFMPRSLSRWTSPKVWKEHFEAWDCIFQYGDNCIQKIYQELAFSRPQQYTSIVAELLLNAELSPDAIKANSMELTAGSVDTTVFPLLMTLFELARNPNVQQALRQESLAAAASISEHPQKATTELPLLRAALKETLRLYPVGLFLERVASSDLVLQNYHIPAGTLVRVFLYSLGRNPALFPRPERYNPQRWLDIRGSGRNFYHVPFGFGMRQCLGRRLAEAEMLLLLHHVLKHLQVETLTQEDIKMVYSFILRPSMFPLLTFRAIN
Source text: as §1, §2, §3, §4, §5, §6, §7
A general note: In TR-FRET formats the signal depends on donor and acceptor labels being close together.

Chain of CYP11B2 (P19099 25-503): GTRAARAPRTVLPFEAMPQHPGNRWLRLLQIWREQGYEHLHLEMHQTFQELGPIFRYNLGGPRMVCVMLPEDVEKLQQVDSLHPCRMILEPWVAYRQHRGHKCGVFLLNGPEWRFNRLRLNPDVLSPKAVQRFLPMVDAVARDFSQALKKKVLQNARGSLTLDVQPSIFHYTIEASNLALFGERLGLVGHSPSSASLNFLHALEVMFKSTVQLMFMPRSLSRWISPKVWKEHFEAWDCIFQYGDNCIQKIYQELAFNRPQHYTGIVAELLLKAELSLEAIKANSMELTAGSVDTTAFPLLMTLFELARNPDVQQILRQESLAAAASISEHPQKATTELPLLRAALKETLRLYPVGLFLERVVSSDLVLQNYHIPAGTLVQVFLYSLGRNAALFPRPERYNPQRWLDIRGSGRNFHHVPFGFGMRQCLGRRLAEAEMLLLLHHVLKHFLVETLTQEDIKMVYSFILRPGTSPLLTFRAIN

Regarding `Cc1ccncc1C(=O)N1CC(Nc2cncc(N3C(=O)c4ccc(Cl)cc4[C@H]3C)c2)C1` (single isomer, unassigned) [Example 25, (3R or 3S)-5-Chloro-3-methyl-2-[5-[[1-(4-methylpyridine-3-carbonyl)azetidin-3-yl]amino]-3-pyridyl]isoindolin-1-one], the pEC50 (as a rule, the EC50 on a negative log10 scale, so that one unit is a factor of ten) at CYP11B2 is 8.15; at human CYP11B1, 5.36.
For `Cc1ccncc1C(=O)N1CC(Nc2cncc(N3C(=O)c4ccc(Cl)cc4[C@H]3C)c2)C1` (single isomer, unassigned) [Example 26, (3S or 3R)-5-Chloro-3-methyl-2-[5-[[1-(4-methylpyridine-3-carbonyl)azetidin-3-yl]amino]-3-pyridyl]isoindolin-1-one], in that order: 7.80 and 5.72.
The like results for `C[C@@H]1c2cc(Cl)ccc2C(=O)N1c1cncc(NC2CN(C(=O)c3ncccc3Cl)C2)c1` (single isomer, unassigned) [Example 27, (3R or 3S)-5-Chloro-2-[5-[[1-(3-chloropyridine-2-carbonyl)azetidin-3-yl]amino]-3-pyridyl]-3-methyl-isoindolin-1-one] were, in that order, 7.70 and 5.95.
For `C[C@H]1c2cc(Cl)ccc2C(=O)N1c1cncc(NC2CN(C(=O)c3ncccc3Cl)C2)c1` (single isomer, unassigned) [Example 28, (3S or 3R)-5-Chloro-2-[5-[[1-(3-chloropyridine-2-carbonyl)azetidin-3-yl]amino]-3-pyridyl]-3-methyl-isoindolin-1-one], in that order: 7.57 and 6.27.
Regarding `C[C@@H]1c2cc(Cl)ccc2C(=O)N1c1cncc(NC2CN(S(=O)(=O)C3CC3)C2)c1` (single isomer, unassigned) [Example 29, (3R or 3S)-5-Chloro-2-[5-[(1-cyclopropylsulfonylazetidin-3-yl)amino]-3-pyridyl]-3-methyl-isoindolin-1-one], the values for the negative logarithm of the EC50 (pEC50) at CYP11B2 and on human CYP11B1 were 7.54 and 5.24, respectively.
The like results for `C[C@@H]1c2cc(Cl)ccc2C(=O)N1c1cncc(NC2CN(S(=O)(=O)C3CC3)C2)c1` (single isomer, unassigned) [Example 30, (3S or 3R)-5-Chloro-2-[5-[(1-cyclopropylsulfonylazetidin-3-yl)amino]-3-pyridyl]-3-methyl-isoindolin-1-one] were, in that order, 7.74 and 6.19.
For `CN(c1cncc(N2C(=O)c3ccc(Cl)cc3C2(C)C)c1)C1CCN(S(=O)(=O)C2CC2)C1` (single isomer, unassigned; (+)) [Example 4, (+)-5-Chloro-2-[5-[[(3R or 3S)-1-cyclopropylsulfonylpyrrolidin-3-yl]-methylamino]pyridin-3-yl]-3,3-dimethylisoindol-1-one], in that order: 8.70 and 7.25.
In the case of `CC1(C)c2cc(Cl)ccc2C(=O)N1c1cncc(NC2CCCN(S(=O)(=O)C3CC3)C2)c1` (single isomer, unassigned; (+)) [Example 7, (+)-5-Chloro-2-[5-[[(3R or 3S)-1-cyclopropylsulfonylpiperidin-3-yl]amino]pyridin-3-yl]-3,3-dimethylisoindol-1-one], the pEC50 at CYP11B2 was 6.64; on human CYP11B1, less than 4.52.
The like results for `CN(c1cncc(N2C(=O)c3ccc(Cl)cc3C2(C)C)c1)C1CCN(S(=O)(=O)C2CC2)C1` (single isomer, unassigned; (-)) [Example 5, (−)-5-chloro-2-[5-[[(3S or 3R)-1-cyclopropylsulfonylpyrrolidin-3-yl]-methylamino]pyridin-3-yl]-3,3-dimethylisoindol-1-one] were, in that order, 9.00 and 6.88.
For `CC1(C)c2cc(Cl)ccc2C(=O)N1c1cncc(NC2CCCN(S(=O)(=O)C3CC3)C2)c1` (single isomer, unassigned; (-)) [Example 8, (−)-5-Chloro-2-[5-[[3S or 3R)-1-cyclopropylsulfonylpiperidin-3-yl]amino]pyridin-3-yl]-3,3-dimethylisoindol-1-one], in that order: 6.44 and 4.71.
Consider `CC1(C)c2cc(Cl)ccc2C(=O)N1c1cncc(NC2CN(S(=O)(=O)C3CC3)C2)c1` [Example 1, 5-Chloro-2-[5-[(1-cyclopropylsulfonylazetidin-3-yl)amino]pyridin-3-yl]-3,3-dimethylisoindol-1-one], for which the negative logarithm of the EC50 (pEC50) is 8.05 at CYP11B2 and 5.90 at human CYP11B1.
The like results for `Cn1ccnc1C(=O)N1CC(Nc2cncc(N3C(=O)c4ccc(Cl)cc4C3(C)C)c2)C1` [Example 2, 5-Chloro-3,3-dimethyl-2-[5-[[1-(1-methylimidazole-2-carbonyl)azetidin-3-yl]amino]-3-pyridyl]isoindolin-1-one] were, in that order, 8.40 and 6.35.
For `CN(c1cncc(N2C(=O)c3ccc(Cl)cc3C2(C)C)c1)C1CN(S(=O)(=O)C2CC2)C1` [Example 3, 5-Chloro-2-[5-[(1-cyclopropylsulfonylazetidin-3-yl)-methylamino]pyridin-3-yl]-3,3-dimethylisoindol-1-one], in that order: 9.40 and 7.74.
For `CN(c1cncc(N2C(=O)c3ccc(Cl)cc3C2(C)C)c1)C1CCN(S(=O)(=O)C2CC2)CC1` [Example 6], in that order: 9.00 and 8.40.
For `CC1(C)c2cc(Cl)ccc2C(=O)N1c1cncc(NC2CN(C(=O)c3ncccc3Cl)C2)c1` [Example 9, 5-Chloro-2-[5-[[1-(3-chloropyridine-2-carbonyl)azetidin-3-yl]amino]pyridin-3-yl]-3,3-dimethylisoindol-1-one], the pEC50 on CYP11B2 is 8.15; at human CYP11B1, 6.53.
The like results for `Cc1ccncc1C(=O)N1CC(Nc2cncc(N3C(=O)c4ccc(Cl)cc4C3(C)C)c2)C1` [Example 10, 5-Chloro-3,3-dimethyl-2-[5-[[1-(4-methylpyridin-3-carbonyl)azetidin-3-yl]amino]pyridin-3-yl]isoindol-1-one] were, in that order, 7.96 and 5.76.
For `Cc1cncc(C(=O)N2CC(Nc3cncc(N4C(=O)c5ccc(Cl)cc5C4(C)C)c3)C2)c1` [Example 11, 5-Chloro-3,3-dimethyl-2-[5-[[1-(5-methylpyridine-3-carbonyl)azetidin-3-yl]amino]pyridin-3-yl]isoindol-1-one], in that order: 8.52 and 5.71.
The like results for `CC1c2cc(Cl)ccc2C(=O)N1c1cncc(NC2CN(C(=O)c3ncccc3Cl)C2)c1` (centres unmarked) [Example 12, 5-Chloro-2-[5-[[1-(3-chloropyridine-2-carbonyl)azetidin-3-yl]amino]pyridin-3-yl]-3-methyl-3H-isoindol-1-one] were, in that order, 7.74 and 5.74.
`Cc1ccncc1C(=O)N1CC(Nc2cncc(N3C(=O)c4ccc(Cl)cc4C3C)c2)C1` (centres unmarked) [Example 13, 5-Chloro-3-methyl-2-[5-[[1-(4-methylpyridine-3-carbonyl)azetidin-3-yl]amino]pyridin-3-yl]-3H-isoindol-1-one]: the negative logarithm of the EC50 (pEC50) is 8.15 at CYP11B2 and 5.31 on human CYP11B1.
Regarding `CC1c2cc(Cl)ccc2C(=O)N1c1cncc(NC2CN(S(=O)(=O)C3CC3)C2)c1` (centres unmarked) [Example 14, 5-Chloro-2-[5-[(1-cyclopropylsulfonylazetidin-3-yl)amino]pyridin-3-yl]-3-methyl-3H-isoindol-1-one], the pEC50 at CYP11B2 was 6.88; at human CYP11B1, 5.54.
The like results for `O=C1c2ccc(Cl)cc2CCN1c1cncc(NC2CN(S(=O)(=O)C3CC3)C2)c1` [Example 15, 6-Chloro-2-[5-[(1-cyclopropylsulfonylazetidin-3-yl)amino]pyridin-3-yl]-3,4-dihydroisoquinolin-1-one] were, in that order, 6.83 and 5.02.
The like results for `Cc1ccncc1C(=O)N1CC(Nc2cncc(N3CCc4cc(Cl)ccc4C3=O)c2)C1` [Example 16, 6-Chloro-2-[5-[[1-(4-methylpyridine-3-carbonyl)azetidin-3-yl]amino]pyridin-3-yl]-3,4-dihydroisoquinolin-1-one] were, in that order, 8.00 and 5.27.
